In patent EP4778922A1, “BICYCLIC COMPOUND, AND PREPARATION METHOD THEREFOR AND PHARMACEUTICAL USE THEREOF” (Shanghai Jeyou Pharmaceutical Co., Ltd., priority 2023, dated 2025):

System: 22RV1 cells
Assay: Cell proliferation inhibition assay in 22RV1 cells (CellTiter-Glo, 7 days)
Format: cell-based, human
Settings: Homo sapiens, 168 h
Protocol: • 1. The human prostate cancer cell lines 22RV1 and LNCaP were purchased from ATCC. […] The cell concentration was adjusted to an appropriate concentration (determined based on the results of cell density optimization experiments), and the cells were seeded into a 96-well plate. A 100 µL cell suspension was added, resulting in 3000 cells per well. […] On the second day, for 22Rv1 cells, test compounds at different concentrations were added, and the cells were incubated at 37°C in a 5% CO2 incubator for 7 days; for LNCaP cells, test compounds at different concentrations were added first, and after 1 hour of treatment, 0.2 nM DHT was added. The cells were then incubated at 37°C in a 5% CO2 incubator for 7 days. • 4. After the incubation period, a volume of CellTiter-Glo detection reagent equal to the volume of the culture medium was added to each well. The plate was shaken and mixed thoroughly for 5 minutes, then incubated at room temperature for 10 minutes. Readings were taken using a PerkinElmer EnVision microplate reader. • 5.
The IC50 curve was fitted and the IC50 value was calculated using the software GraphPad Prism 8 with the calculation formula XY-analysis/Nonlinear regression (curve fit)/Dose response-Inhibition/log (inhibitor) vs. response-Variable slope (four parameters).

Work on `CC(C)(c1ccc(-c2ccc(OCC3CC(CN4CC5(COC5)C4)C3)cc2)cc1)c1cc(Cl)c(OCCCl)c(C#N)c1` (stereo not shown) [Compound 196] yielded an IC50 of 860 nM.

In the case of `CC(C)(c1ccc(-c2ccc(OCc3ccnc(N4CC5(C4)CC(F)(F)C5)n3)cc2)cc1)c1cc(Cl)c(OCCCl)c(C#N)c1` [Compound 198], the IC50 is reported as 530 nM.

In the case of `CC(C)(c1ccc(-c2ccc(OCc3ccnc(N4CC5COCC5C4)n3)cc2)cc1)c1cc(Cl)c(OCCCl)c(C#N)c1` (stereo not shown) [Compound 199], the IC50 is reported as 1010 nM.

`CC(C)(c1ccc(-c2ccc(OCc3ccnc(N4CCN(S(C)(=O)=O)CC4)n3)cc2)cc1)c1cc(Cl)c(OCCCl)c(C#N)c1` [Compound 200] showed an IC50 of 580 nM.

With `CC(C)(c1ccc(-c2ccc(OCc3ccnc(OC4CC5(COC5)C4)n3)cc2)cc1)c1cc(Cl)c(OCCCl)c(C#N)c1` [Compound 201] the IC50 was 190 nM.

In the case of `CC(C)(c1ccc(-c2ccc(OCCOc3nccc(N=S4(=O)CCOCC4)n3)cc2)cc1)c1cc(Cl)c(OCCCl)c(C#N)c1` [Compound 205], the IC50 is reported as 430 nM.

With `CC(C)(c1ccc(-c2ccc(OCc3ccnc(N4CC5(C4)CS(=O)(=O)C5)n3)nc2)cc1)c1cc(Cl)c(OCCCl)c(C#N)c1` [Compound 208] the IC50 was 990 nM.

With `CC(C)(c1ccc(-c2ccc(OCc3ccnc(N4CCC(S(C)(=O)=O)CC4)n3)nc2)cc1)c1cc(Cl)c(OCCCl)c(C#N)c1` [Compound 210] the IC50 was 230 nM.

`CC(C)(c1ccc(-c2ccc(OCc3ccnc(N=S4(=O)CCNCC4)n3)nc2)cc1)c1cc(Cl)c(OCCCl)c(C#N)c1` [Compound 211] showed an IC50 of 390 nM.

Molecule `CC(C)(c1ccc(-c2ccc(OCC3CN(C4CCOCC4)C3)cc2)cc1)c1cc(Cl)c(OCCCl)c(C#N)c1` [Compound 212] has an IC50 of 440 nM.

With `CC(C)(c1ccc(-c2ccc(OCc3ccnc(N=S4(=O)CCN(CC(F)(F)F)CC4)n3)cc2)cc1)c1cc(Cl)c(OCCCl)c(C#N)c1` [Compound 217] the IC50 was 430 nM.

In the case of `CC(=O)N1CCS(=O)(=Nc2nccc(COc3ccc(-c4ccc(C(C)(C)c5cc(Cl)c(OCCCl)c(C#N)c5)cc4)cc3)n2)CC1` [Compound 218], the IC50 is reported as 370 nM.

With `CC(C)(c1ccc(-c2ccc(OCc3ccnc(N=S4(=O)CCN(C(=O)C5CC5)CC4)n3)cc2)cc1)c1cc(Cl)c(OCCCl)c(C#N)c1` [Compound 219] the IC50 was 210 nM.

For `CC(C)(c1ccc(-c2ccc(OCc3ccnc(N=S4(=O)CCN(S(C)(=O)=O)CC4)n3)cc2)cc1)c1cc(Cl)c(OCCCl)c(C#N)c1` [Compound 220], the IC50 was 170 nM.

In the case of `CC(C)(c1ccc(-c2ccc(OCc3ccnc(N=S4(=O)CCN(C5COC5)CC4)n3)cc2)cc1)c1cc(Cl)c(OCCCl)c(C#N)c1` [Compound 223], the IC50 is reported as 510 nM.

Molecule `CC(C)(c1ccc(-c2ccc(OCc3cc(P(C)(C)=O)ccn3)cc2)cc1)c1cc(Cl)c(OCCCl)c(C#N)c1` [Compound 224] has an IC50 of 1330 nM.

`CC(C)(c1ccc(-c2ccc(OCC3CC(N4CC5(C4)CS(=O)(=O)C5)C3)cc2)cc1)c1cc(Cl)c(OCCCl)c(C#N)c1` (stereo not shown) [Compound 230] showed an IC50 of 520 nM.

Work on `CC(C)(c1ccc(-c2ccc(/C=C/c3cnc(N4CC5(C4)CS(=O)(=O)C5)nc3)cc2)cc1)c1cc(Cl)c(OCCCl)c(C#N)c1` [Compound 235] yielded an IC50 of 610 nM.

`CC(C)(c1ccc(-c2ccc(OCc3ccnc(N=S4(=O)CCN(CC(F)F)CC4)n3)cc2)cc1)c1cc(Cl)c(OCCCl)c(C#N)c1` [Compound 239] gave an IC50 of 1010 nM.

`CC(C)(c1ccc(-c2ccc(C#Cc3ccnc(N=S4(=O)CCCC4)n3)cc2)cc1)c1cnc2c(cnn2CCCl)c1` [Compound 240] was tested, and the IC50 was 650 nM.

Work on `CC(C)(c1ccc(-c2ccc(OCc3ccnc(N=S4(=O)CCN(CCC(F)(F)F)CC4)n3)cc2)cc1)c1cc(Cl)c(OCCCl)c(C#N)c1` [Compound 241] yielded an IC50 of 790 nM.

With `CC(C)(c1ccc(-c2ccc(OCc3ccnc(N=S4(=O)CCN(C5CC5)CC4)n3)cn2)cc1)c1cc(Cl)c(OCCCl)c(C#N)c1` [Compound 250] the IC50 was 860 nM.

With `CC(C)(c1ccc(-c2ccc(OCc3ccnc(N=S4(=O)CCN(CC(O)C(F)(F)F)CC4)n3)cc2)cc1)c1cc(Cl)c(OCCCl)c(C#N)c1` (stereo not shown) [Compound 252] the IC50 was 720 nM.

Molecule `CNC(=O)CN1CCS(=O)(=Nc2nccc(COc3ccc(-c4ccc(C(C)(C)c5cc(Cl)c(OCCCl)c(C#N)c5)cc4)cc3)n2)CC1` [Compound 255] has an IC50 of 560 nM.

Molecule `CC(C)(c1ccc(-c2ccc(OCc3ccnc(N=S4(=O)CCN(CC(F)(F)F)CC4)n3)nc2)cc1)c1cc(Cl)c(OCCCl)c(C#N)c1` [Compound 261] has an IC50 of 830 nM.

Molecule `CC(C)(c1ccc(-c2ccc(OCc3ccnc(N4CCCS4(=O)=O)n3)cc2)cc1)c1cc(Cl)c(OCCCl)c(C#N)c1` [Compound 265] has an IC50 of 540 nM.

For `CC(C)(c1ccc(-c2ccc(OCc3ccnc(N4CCC(S(C)(=O)=O)C4)n3)cc2)cc1)c1cc(Cl)c(OCCCl)c(C#N)c1` (stereo not shown) [Compound 266], the IC50 was 770 nM.

For `CC(C)(c1ccc(-c2ccc(Oc3ccc(-c4ccnc(P(C)(C)=O)n4)cc3)cc2)cc1)c1cc(Cl)c(OCCCl)c(C#N)c1` [Compound 267], the IC50 was 170 nM.

Molecule `CC(C)(c1ccc(-c2ccc(/C=C\c3cnc(P(C)(C)=O)nc3)c(C#N)c2)cc1)c1cc(Cl)c(OCCCl)c(C#N)c1` [Compound 269] has an IC50 of 390 nM.

`CC(C)(c1ccc(-c2ccc(Oc3ccc(-c4cnc(P(C)(C)=O)nc4)cc3)cc2)cc1)c1cc(Cl)c(OCCCl)c(C#N)c1` [Compound 270] gave an IC50 of 890 nM.

With `CC(C)(c1ccc(-c2cnc(OCc3ccc(-c4cnc(P(C)(C)=O)nc4)cc3)nc2)cc1)c1cc(Cl)c(OCCCl)c(C#N)c1` [Compound 274] the IC50 was 130 nM.

Work on `CC(C)(c1ccc(-c2ccc(OCc3ccc(-c4cnc(P(C)(C)=O)nc4)cc3)cn2)cc1)c1cc(Cl)c(OCCCl)c(C#N)c1` [Compound 275] yielded an IC50 of 460 nM.

`CC(C)(c1ccc(-c2ccc(OCc3ccc(-c4cnc(P(C)(C)=O)nc4)cc3)nc2)cc1)c1cc(Cl)c(OCCCl)c(C#N)c1` [Compound 277] gave an IC50 of 1310 nM.

With `CC(C)(c1ccc(-c2ccc(OCc3ccnc(P(C)(C)=O)n3)cc2)cc1)c1cc(F)c2c(cnn2CCCl)c1` [Compound 280] the IC50 was 1270 nM.

With `Cn1ncc2c1CCS(=O)(=Nc1nccc(COc3ccc(-c4ccc(C(C)(C)c5cc(Cl)c(OCCCl)c(C#N)c5)cc4)cc3)n1)C2` (stereo not shown) [Compound 281] the IC50 was 500 nM.

Molecule `CC(C)(c1ccc(-c2ccc(C#Cc3ncc(P(C)(C)=O)cn3)cc2)cc1)c1cc(Cl)c(OCCCl)c(C#N)c1` [Compound 282] has an IC50 of 820 nM.

Molecule `CC(C)(c1ccc(-c2ccc(OCc3ccnc(N=S4(=O)CCN(CC(O)CC(F)(F)F)CC4)n3)cc2)cc1)c1cc(Cl)c(OCCCl)c(C#N)c1` (stereo not shown) [Compound 285] has an IC50 of 210 nM.

In the case of `CC(C)(c1ccc(-c2ccc(OCc3ccnc(N=S4(=O)CCN(C[C@@H](O)C(F)(F)F)CC4)n3)cc2)cc1)c1cc(Cl)c(OCCCl)c(C#N)c1` [Compound 286], the IC50 is reported as 700 nM.

With `CC(C)(c1ccc(-c2ccc(OCc3ccnc(N=S4(=O)CCN(C[C@H](O)C(F)(F)F)CC4)n3)cc2)cc1)c1cc(Cl)c(OCCCl)c(C#N)c1` [Compound 287] the IC50 was 670 nM.

`CC(C)(c1ccc(-c2ccc(/C=C/c3cnc(N=S4(=O)CCOCC4)nc3)cc2)cc1)c1cc(Cl)c(OCCCl)c(C#N)c1` [Compound 293] showed an IC50 of 74 nM.

With `CC(C)(c1ccc(-c2ccc(/C=C/c3ccnc(N=S4(=O)CCOCC4)n3)cc2)cc1)c1cc(Cl)c(OCCCl)c(C#N)c1` [Compound 294] the IC50 was 820 nM.

Molecule `CC(C)(c1ccc(-c2ccc(OCC3CC(CN4CCS(=O)(=O)CC4)C3)cc2)cc1)c1cc(Cl)c(OCCCl)c(C#N)c1` (stereo not shown) [Compound 296] has an IC50 of 480 nM.

In the case of `CC(C)(c1ccc(-c2ccc(OCCN3CC4(C3)CS(=O)(=O)C4)cc2)cc1)c1cc(Cl)c(OCCCl)c(C#N)c1` [Compound 299], the IC50 is reported as 970 nM.
